The values that follow come from patent US12331046B2, “CTPS1 inhibitors and uses thereof” (Nimbus Clotho, Inc., priority 2020, dated 2025).

The target in this experiment is human CTPS1 (Homo sapiens (Human), UniProt P17812). The experiment is described as follows: hCTPS1 biochemical assay (ADP-Glo). Conditions: hCTPS1 25 nM, ATP 120 uM, UTP 160 uM, GTP 60 uM, L-Glutamine 100 uM, 25 degrees C. (In general: In ADP-Glo the light output rises with the ADP produced.)
human CTPS1, sequence (P17812 whole entry): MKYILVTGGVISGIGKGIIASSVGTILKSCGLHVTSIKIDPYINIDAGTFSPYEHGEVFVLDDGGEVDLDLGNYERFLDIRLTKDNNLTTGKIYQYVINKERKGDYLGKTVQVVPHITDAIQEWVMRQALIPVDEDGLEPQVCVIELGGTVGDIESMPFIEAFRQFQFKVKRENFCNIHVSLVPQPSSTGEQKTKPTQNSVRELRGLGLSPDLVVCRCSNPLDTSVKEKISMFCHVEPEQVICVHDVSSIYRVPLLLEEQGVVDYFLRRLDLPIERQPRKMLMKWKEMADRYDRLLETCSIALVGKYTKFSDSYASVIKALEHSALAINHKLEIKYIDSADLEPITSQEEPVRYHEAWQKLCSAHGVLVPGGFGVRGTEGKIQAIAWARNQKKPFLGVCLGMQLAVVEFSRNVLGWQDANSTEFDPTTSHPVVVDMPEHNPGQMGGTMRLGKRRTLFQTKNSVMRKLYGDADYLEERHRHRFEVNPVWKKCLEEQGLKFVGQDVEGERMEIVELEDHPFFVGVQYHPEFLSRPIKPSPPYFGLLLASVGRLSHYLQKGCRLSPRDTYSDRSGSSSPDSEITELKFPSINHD
In the case of `CCC[C@@H]1CCN1c1ncc(C(=O)NCc2cc(NS(=O)(=O)C3CC3)ccn2)nc1C` (single isomer, unassigned) [I-58], the IC50 is 100 to 1000 nM.

As for `CCOc1cncc(-c2cnc(C(=O)N[C@@H](c3cc(NS(=O)(=O)C4CC4)ccn3)[C@H]3CCOC3)s2)n1` (single isomer, unassigned) [I-92], the IC50 was under 100 nM.

As for `CCOc1cncc(-c2cnc(C(=O)N[C@@H](c3cc(NS(=O)(=O)C4CC4)ccn3)[C@@H]3CCOC3)s2)n1` (single isomer, unassigned) [I-93], the IC50 is under 100 nM.

As to `CCOc1cncc(-c2cnc(C(=O)N[C@H](c3cc(NS(=O)(=O)C4CC4)ccn3)[C@@H]3CCOC3)s2)n1` (single isomer, unassigned) [I-94], the IC50 was under 100 nM.

`CCOc1cncc(-c2cnc(C(=O)N[C@H](c3cc(NS(=O)(=O)C4CC4)ccn3)[C@H]3CCOC3)s2)n1` (single isomer, unassigned) [I-95] had an IC50 of under 100 nM.

In turn, `CCOc1cncc(-c2cnc(C(=O)N[C@H](CN3C[C@@H]4C[C@H]3CO4)c3cc(NS(=O)(=O)C4CC4)ccn3)s2)n1` (single isomer, unassigned) [I-101] returned an IC50 of under 100 nM.

As to `CCOc1cncc(-c2cnc(C(=O)N[C@@H](CN3C[C@@H]4C[C@H]3CO4)c3cc(NS(=O)(=O)C4CC4)ccn3)s2)n1` (single isomer, unassigned) [I-102], the IC50 is under 100 nM.

As to `CCOc1cncc(-c2cnc(C(=O)N[C@H](CN3CCC(N(C)C)CC3)c3cc(NS(=O)(=O)C4CC4)ccn3)s2)n1` (single isomer, unassigned) [I-103], the half-inhibitory concentration (IC50) is under 100 nM.

For `CCOc1cncc(-c2cnc(C(=O)N[C@@H](CN3CCC(N(C)C)CC3)c3cc(NS(=O)(=O)C4CC4)ccn3)s2)n1` (single isomer, unassigned) [I-104], the IC50 was under 100 nM.

`CCOc1cncc(-c2cnc(C(=O)N[C@H](c3cc(NS(=O)(=O)C4CC4)ccn3)[C@H]3C[C@@H](N(C)C)C3)s2)n1` (single isomer, unassigned) [I-105] yielded a half-inhibitory concentration (IC50) of under 100 nM.

`CCOc1cncc(-c2cnc(C(=O)N[C@H](c3cc(NS(=O)(=O)C4CC4)ccn3)[C@H]3C[C@H](N(C)C)C3)s2)n1` (single isomer, unassigned) [I-106]: the IC50 is under 100 nM.

In turn, `CCOc1cncc(-c2cnc(C(=O)N[C@@H](c3cc(NS(=O)(=O)C4CC4)ccn3)[C@H]3C[C@H](N(C)C)C3)s2)n1` (single isomer, unassigned) [I-107, N-((4-(cyclopropanesulfonamido)pyridin-2-yl)((1r, 3r)-3-(dimethylamino)cyclobutyl)methyl)-5-(6-ethoxypyrazin-2-yl)thiazole-2-carboxamide] came in with an IC50 of under 100 nM.

The compound `CCOc1cncc(-c2cnc(C(=O)N[C@@H](c3cc(NS(=O)(=O)C4CC4)ccn3)[C@H]3C[C@@H](N(C)C)C3)s2)n1` (single isomer, unassigned) [I-108] had an IC50 of under 100 nM.

With `CCOc1cncc(-c2cnc(C(=O)N[C@@H](CN3[C@H](C)COC[C@@H]3C)c3cc(NS(=O)(=O)C4CC4)ccn3)s2)n1` (single isomer, unassigned) [I-109], the half-inhibitory concentration (IC50) is under 100 nM.

As to `CCOc1cncc(-c2cnc(C(=O)N[C@H](CN3[C@H](C)COC[C@@H]3C)c3cc(NS(=O)(=O)C4CC4)ccn3)s2)n1` (single isomer, unassigned) [I-110], the IC50 is under 100 nM.

`CCOc1cncc(-c2cnc(C(=O)N[C@@H](CN3CCOCC3(C)C)c3cc(NS(=O)(=O)C4CC4)ccn3)s2)n1` (single isomer, unassigned) [I-116] came in with an IC50 of under 100 nM.

In the case of `CCOc1cncc(-c2cnc(C(=O)N[C@H](CN3CCOCC3(C)C)c3cc(NS(=O)(=O)C4CC4)ccn3)s2)n1` (single isomer, unassigned) [I-117], the IC50 was under 100 nM.

`CCOc1cncc(-c2cnc(C(=O)N[C@@H](CN3CCN(C(C)C)CC3)c3cc(NS(=O)(=O)C4CC4)ccn3)s2)n1` (single isomer, unassigned) [I-118] returned an IC50 of under 100 nM.

`CCOc1cncc(-c2cnc(C(=O)N[C@@H](CN3CCN(C4CC4)CC3)c3cc(NS(=O)(=O)C4CC4)ccn3)s2)n1` (single isomer, unassigned) [I-119] registered a half-maximal inhibitory concentration (IC50) of under 100 nM.

Compound `CCOc1cncc(-c2cnc(C(=O)N[C@H](CN3CCN(C4CC4)CC3)c3cc(NS(=O)(=O)C4CC4)ccn3)s2)n1` (single isomer, unassigned) [I-120] yielded an IC50 of under 100 nM.

For the compound `CCOc1cncc(-c2cnc(C(=O)N[C@H](CN3CCN(C(C)C)CC3)c3cc(NS(=O)(=O)C4CC4)ccn3)s2)n1` (single isomer, unassigned) [I-121], the IC50 is under 100 nM.

`CCOc1cncc(-c2cnc(C(=O)N[C@H](CCN(C)C)c3c(F)ccc(NS(=O)(=O)C4CC4)c3F)s2)n1` (single isomer, unassigned) [I-124] had an IC50 of at least 1000 nM.

The compound `CCOc1cncc(-c2cnc(C(=O)N[C@@H](CCN(C)C)c3c(F)ccc(NS(=O)(=O)C4CC4)c3F)s2)n1` (single isomer, unassigned) [I-125] came in with an IC50 of at least 1000 nM.

As to `CCOc1cncc(-c2cnc(C(=O)N[C@@H](C[C@@H]3CCCCN3C)c3cc(NS(=O)(=O)C4CC4)ccn3)s2)n1` (single isomer, unassigned) [I-134], the IC50 lay within 100 to 1000 nM.

`CCOc1cncc(-c2cnc(C(=O)N[C@H](C[C@@H]3CCCCN3C)c3cc(NS(=O)(=O)C4CC4)ccn3)s2)n1` (single isomer, unassigned) [I-136]: the IC50 was under 100 nM.

For `CCOc1cncc(-c2cnc(C(=O)N[C@@H](C[C@H]3CCCCN3)c3cc(NS(=O)(=O)C4CC4)ccn3)s2)n1` (single isomer, unassigned) [I-138], the half-inhibitory concentration (IC50) was under 100 nM.

As for `CCOc1cncc(-c2cnc(C(=O)N[C@@H](C[C@@H]3CCCCN3)c3cc(NS(=O)(=O)C4CC4)ccn3)s2)n1` (single isomer, unassigned) [I-139], the half-inhibitory concentration (IC50) was under 100 nM.

As for `CCOc1cncc(-c2cnc(C(=O)N[C@H](C[C@@H]3CCCCN3)c3cc(NS(=O)(=O)C4CC4)ccn3)s2)n1` (single isomer, unassigned) [I-141], the half-maximal inhibitory concentration (IC50) is under 100 nM.

`CCOc1cncc(-c2cnc(C(=O)N[C@H](CCN(C)C)c3cccc(NS(=O)(=O)C4CC4)c3)s2)n1` (single isomer, unassigned) [I-143] had an IC50 of at least 1000 nM.

Compound `CCOc1cncc(-c2cnc(C(=O)N[C@@H](CCN(C)C)c3cccc(NS(=O)(=O)C4CC4)c3)s2)n1` (single isomer, unassigned) [I-144] returned an IC50 of under 100 nM.

Compound `CCOc1cncc(-c2cnc(C(=O)N[C@@H](CN3CCN(C)CC3)c3cc(NS(=O)(=O)C4CC4)ccn3)s2)n1` (single isomer, unassigned) [I-191] showed an IC50 of under 100 nM.

For the compound `CCOc1cncc(-c2cnc(C(=O)N[C@H](CN3CCN(C)CC3)c3cc(NS(=O)(=O)C4CC4)ccn3)s2)n1` (single isomer, unassigned) [I-192], the IC50 is under 100 nM.

As to `CCOc1cncc(-c2cnc(C(=O)N[C@@H](CN3CC(F)C3)c3cc(NS(=O)(=O)C4CC4)ccn3)s2)n1` (single isomer, unassigned) [I-203], the IC50 is under 100 nM.

Regarding `CCOc1cncc(-c2cnc(C(=O)N[C@H](CN3CC(F)C3)c3cc(NS(=O)(=O)C4CC4)ccn3)s2)n1` (single isomer, unassigned) [I-204], the IC50 was under 100 nM.

The compound `CCOc1cncc(-c2cnc(C(=O)N[C@H](CN3CCCCC3)c3cc(NS(=O)(=O)C4CC4)ccn3)s2)n1` (single isomer, unassigned) [I-213] displayed an IC50 of under 100 nM.

Consider `CCOc1cncc(-c2cnc(C(=O)N[C@@H](CN3CCCCC3)c3cc(NS(=O)(=O)C4CC4)ccn3)s2)n1` (single isomer, unassigned) [I-214], for which the IC50 is under 100 nM.

In turn, `CCOc1cncc(-c2cnc(C(=O)N[C@@H](CN3CCC3)c3cc(NS(=O)(=O)C4CC4)ccn3)s2)n1` (single isomer, unassigned) [I-221] had an IC50 of 100 to 1000 nM.

Consider `CCOc1cncc(-c2cnc(C(=O)N[C@H](CN3CCC3)c3cc(NS(=O)(=O)C4CC4)ccn3)s2)n1` (single isomer, unassigned) [I-222], for which the IC50 is under 100 nM.

The compound `CCOc1cncc(-c2cnc(C(=O)N[C@H](CN(C)C)c3cc(NS(=O)(=O)C4CC4)ccn3)s2)n1` (single isomer, unassigned) [I-233] gave an IC50 of under 100 nM.

Consider `CCOc1cncc(-c2cnc(C(=O)N[C@@H](CN(C)C)c3cc(NS(=O)(=O)C4CC4)ccn3)s2)n1` (single isomer, unassigned) [I-234], for which the IC50 was under 100 nM.

Compound `CCOc1cncc(-c2cnc(C(=O)N[C@@H](CN3CCOCC3)c3cc(NS(=O)(=O)C4CC4)ccn3)s2)n1` (single isomer, unassigned) [I-235] returned a concentration for half-maximal inhibition (IC50) of under 100 nM.

In turn, `CCOc1cncc(-c2cnc(C(=O)N[C@H](CN3CCOCC3)c3cc(NS(=O)(=O)C4CC4)ccn3)s2)n1` (single isomer, unassigned) [I-236] showed an IC50 of under 100 nM.

With `CCOc1cncc(-c2ccc3c(c2)CN(C(CC)c2csc(NS(=O)(=O)C4CC4)n2)C3=O)n1` (stereo in doubt) [I-12, (R)—N-(4-(1-(5-(6-ethoxypyrazin-2-yl)-1-oxoisoindolin-2-yl)propyl)thiazol-2-yl)cyclopropanesulfonamide], the IC50 is under 100 nM.

On to `CCOc1cncc(-c2ccc3c(c2)CN(C(CC)c2csc(NS(=O)(=O)C4CC4)n2)C3=O)n1` (stereo in doubt) [I-12a, (S)—N-(4-(1-(5-(6-ethoxypyrazin-2-yl)-1-oxoisoindolin-2-yl)propyl)thiazol-2-yl)cyclopropanesulfonamide], for which the IC50 is 100 to 1000 nM.

`CCOc1cncc(-c2ccc(C(=O)N3CCCC3c3ccnc(NS(=O)(=O)C4CC4)n3)nc2)n1` (stereo in doubt) [I-34, N-[4-[(2S)-1-[5-(6-ethoxypyrazin-2-yl)pyridine-2-carbonyl]pyrrolidin-2-yl]pyrimidin-2-yl]cyclopropanesulfonamide] had an IC50 of under 100 nM.

As for `CO[C@H]1CCN(c2cncc(-c3ccc(C(=O)NCc4cc(NS(=O)(=O)C5CC5)ccn4)cc3)n2)C1` (stereo in doubt) [I-45], the IC50 was at least 1000 nM.

As a reminder, the IC50 is the concentration that gives 50% inhibition.
